Eleven compounds from patent US20250270191A1, “QUINOLONE BCL6 BIFUNCTIONAL DEGRADERS” (Treeline Biosciences, Inc., priority 2022, published 2025) can be followed below.

Data set [1] in a line: Pharmacokinetic assessment in male CD-1 mice (IV and PO). The format is in vivo. As to conditions: mouse, plasma; for clearance: clearance (IV), commonly 1 mg/kg; for clearance / AUC(0-inf): non-compartmental model; for bioavailability: oral bioavailability, PO commonly 10 mg/kg vs IV commonly 1 mg/kg; for Cmax / AUC(0-inf): route not given. The protocol: Pharmacokinetics (PK) studies were conducted on male CD-1 mice by two delivery routes: intravenous (IV) injection and oral gavage (PO). Mice for the IV group (n=3) were allowed free access to food and water and mice for the PO group (n=3) were fasted 6-8 hours prior to dosing. The test articles were formulated in solution for the IV route (commonly 5% DMSO/10% Solutol HS15/85% water (pH 5)) and solution or suspension for the PO route (commonly 100% PEG400). On the day of the experiment, test article was administered via vein injection (commonly 1 mg/kg) for IV route or via oral gavage (commonly 10 mg/kg) for PO route, respectively. Blood samples were collected via the saphenous vein using a needle (commonly 20G) at 0.83 to 24 hours post dose. Approximately 30 μL of blood per timepoint was collected into pre-chilled tubes using K2EDTA as the anti-coagulant. After collection of blood samples at each time point, the blood samples were stored on ice. Blood samples were centrifuged within 0.5 hour of collection to separate plasma. Centrifugation was conducted at 2500×g for 15 minutes at 4° C. Plasma samples were immediately acidified (commonly 0.1M sodium citrate (pH=5) buffer). The samples were then submitted to LC-MS/MS for sample analysis. Pharmacokinetics parameters, including clearance (IV), area under the curve (AUC), and oral bioavailability (% F) were calculated by non-compartmental model.

In data set [2] the target is T1, Human BCL6 protein (N-terminal HiBiT tagged BCL6 in HT1080 cells) (Homo sapiens, UniProt P41182+Q96SW2).
T1 construct: Human BCL6 protein coding open reading frame; expressed in transfected cells; host or cells: HT1080 (ATCC CCL-121), stably transduced with lentivirus pLV-UBC-N-HiBiT-BCL6-PGK-puro
In words: HiBiT based BCL6 degradation assay. The class given is cell-based. The following applies: HT1080 cells expressing N-terminal HiBiT tagged BCL6; 5 hours incubation; BCL6 degradation normalized with DMSO control. A digest of the protocol: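 HT1080 cells stably expressing N-terminal HiBiT-BCL6 were treated with compound dilution series for 5 h at 37° C. in RPMI 1640 with 10% FBS. HiBiT lytic luminescence read after 15 min; degradation normalized to DMSO, with curves fitted by four-parameter logistic model.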

Turning to `CNC(=O)COc1cc2cc(Nc3nc(N4CCN(CC5CCN(c6cccc7c(C8CCC(=O)NC8=O)nn(C)c67)CC5)CC4)ncc3Cl)ccc2n(C)c1=O` (stereo not shown) [Compound 101, 2-((6-((5-chloro-2-(4-((1-(3-(2,6-dioxopiperidin-3-yl)-1-methyl-1H-indazol-7-yl)piperidin-4-yl)methyl)piperazin-1-yl)pyrimidin-4-yl)amino)-1-methyl-2-oxo-1,2-dihydroquinolin-3-yl)oxy)-N-methylacetamide], in data set [1], the clearance came to 12.8 mL/min/kg; the bioavailability (in general, dose-corrected exposure relative to a reference, in per cent) was 76.4%; the Cmax – broadly, the highest concentration seen after dosing – is 3400 nM; the AUC(0-inf) (in general, the area under the concentration-time curve extrapolated to infinity) stood at 12.6 µM·h. Moreover, the “Ymin (5 hr)” value in data set [2] is recorded as “++++ (Ymin ≤ 25%)”.
In data set [1], `CNC(=O)COc1cc2cc(Nc3nc(N4CCN(CC5CCN(c6ccc7c(C8CCC(=O)NC8=O)nn(C)c7c6)CC5)CC4)ncc3Cl)ccc2n(C)c1=O` (stereo not shown) [Compound 102, 2-((6-((5-chloro-2-(4-((1-(3-(2,6-dioxopiperidin-3-yl)-1-methyl-1H-indazol-6-yl)piperidin-4-yl)methyl)piperazin-1-yl)pyrimidin-4-yl)amino)-1-methyl-2-oxo-1,2-dihydroquinolin-3-yl)oxy)-N-methylacetamide] showed a clearance of 10.8 mL/min/kg, a bioavailability of 67.5%, a Cmax of 2550 nM and an AUC(0-inf) of 13.5 µM·h. Also, the “Ymin (5 hr)” value in data set [2] is given as “+++ (25% < Ymin ≤ 50%)”.
Take `CNC(=O)COc1cc2cc(Nc3nc(N4CCN(C(C)(C)C5CCN(c6ccc7c(C8CCC(=O)NC8=O)nn(C)c7c6)CC5)CC4)ncc3Cl)ccc2n(C)c1=O` (stereo not shown) [Compound 340, 2-((6-((5-chloro-2-(4-(2-(1-(3-(2,6-dioxopiperidin-3-yl)-1-methyl-1H-indazol-6-yl)piperidin-4-yl)propan-2-yl)piperazin-1-yl)pyrimidin-4-yl)amino)-1-methyl-2-oxo-1,2-dihydroquinolin-3-yl)oxy)-N-methylacetamide]: the “Ymin (5 hr)” value in data set [2] is “+++ (25% < Ymin ≤ 50%)”.
For the compound `CNC(=O)COc1cc2cc(Nc3nc(N4CC5(CCC(Nc6ccc7c(C8CCC(=O)NC8=O)nn(C)c7c6)CC5)C4)ncc3Cl)ccc2n(C)c1=O` (stereo not shown) [Compound 341, 2-((6-((5-chloro-2-(7-((3-(2,6-dioxopiperidin-3-yl)-1-methyl-1H-indazol-6-yl)amino)-2-azaspiro[3.5]nonan-2-yl)pyrimidin-4-yl)amino)-1-methyl-2-oxo-1,2-dihydroquinolin-3-yl)oxy)-N-methylacetamide], in data set [2], the “Ymin (5 hr)” value is given as “++++ (Ymin ≤ 25%)”.
Turning to `CNC(=O)COc1cc2cc(Nc3nc(N4CC5(CCC(Nc6cccc7c(C8CCC(=O)NC8=O)nn(C)c67)CC5)C4)ncc3Cl)ccc2n(C)c1=O` (stereo not shown) [Compound 342, 2-((6-((5-chloro-2-(7-((3-(2,6-dioxopiperidin-3-yl)-1-methyl-1H-indazol-7-yl)amino)-2-azaspiro[3.5]nonan-2-yl)pyrimidin-4-yl)amino)-1-methyl-2-oxo-1,2-dihydroquinolin-3-yl)oxy)-N-methylacetamide], in data set [2], the “Ymin (5 hr)” value was “+++ (25% < Ymin ≤ 50%)”.
For the compound `CNC(=O)COc1cc2cc(Nc3nc(N4CCC5(CCC(Nc6ccc7c(C8CCC(=O)NC8=O)nn(C)c7c6)CC5)C4)ncc3Cl)ccc2n(C)c1=O` (stereo not shown) [Compound 343, 2-((6-((5-chloro-2-(8-((3-(2,6-dioxopiperidin-3-yl)-1-methyl-1H-indazol-6-yl)amino)-2-azaspiro[4.5]decan-2-yl)pyrimidin-4-yl)amino)-1-methyl-2-oxo-1,2-dihydroquinolin-3-yl)oxy)-N-methylacetamide], in data set [2], the “Ymin (5 hr)” value was “+++ (25% < Ymin ≤ 50%)”.
Still for that read-out and setting: as for `CNC(=O)COc1cc2cc(Nc3nc(N4CCC5(CCC(Nc6cccc7c(C8CCC(=O)NC8=O)nn(C)c67)CC5)C4)ncc3Cl)ccc2n(C)c1=O` (stereo not shown) [Compound 344, 2-((6-((5-chloro-2-(8-((3-(2,6-dioxopiperidin-3-yl)-1-methyl-1H-indazol-7-yl)amino)-2-azaspiro[4.5]decan-2-yl)pyrimidin-4-yl)amino)-1-methyl-2-oxo-1,2-dihydroquinolin-3-yl)oxy)-N-methylacetamide], the entry is “++ (50% < Ymin ≤ 70%)”.
Regarding `CNC(=O)COc1cc2cc(Nc3nc(N4CCN(C(=O)C5CCN(c6cccc7c(C8CCC(=O)NC8=O)nn(C)c67)CC5)CC4)ncc3Cl)ccc2n(C)c1=O` (stereo not shown) [Compound 345, 2-((6-((5-chloro-2-(4-(1-(3-(2,6-dioxopiperidin-3-yl)-1-methyl-1H-indazol-7-yl)piperidine-4-carbonyl)piperazin-1-yl)pyrimidin-4-yl)amino)-1-methyl-2-oxo-1,2-dihydroquinolin-3-yl)oxy)-N-methylacetamide], the “Ymin (5 hr)” value in data set [2] is reported as “++++ (Ymin ≤ 25%)”.
The same measure, in the same setting: as for `CNC(=O)COc1cc2cc(Nc3cc(N4CCN(CC5CCN(c6cccc7c(C8CCC(=O)NC8=O)nn(C)c67)CC5)CC4)ncc3Cl)ccc2n(C)c1=O` (stereo not shown) [Compound 346, 2-((6-((5-chloro-2-(4-((1-(3-(2,6-dioxopiperidin-3-yl)-1-methyl-1H-indazol-7-yl)piperidin-4-yl)methyl)piperazin-1-yl)pyridin-4-yl)amino)-1-methyl-2-oxo-1,2-dihydroquinolin-3-yl)oxy)-N-methylacetamide], the entry is “++++ (Ymin ≤ 25%)”; as for `CC(=O)COc1cc2cc(Nc3nc(N4CCN(CC5CCN(c6cccc7c(C8CCC(=O)NC8=O)nn(C)c67)CC5)[C@@H](C)C4)ncc3Cl)ccc2n(C)c1=O` (stereo partly drawn) [Compound 347a, 3-(7-(4-(((S)-4-(5-chloro-4-((1-methyl-2-oxo-3-(2-oxopropoxy)-1,2-dihydroquinolin-6-yl)amino)pyrimidin-2-yl)-2-methylpiperazin-1-yl)methyl)piperidin-1-yl)-1-methyl-1H-indazol-3-yl)piperidine-2,6-dione], “++++ (Ymin ≤ 25%)”; as for `CC(=O)COc1cc2cc(Nc3nc(N4CCC5(CCN(CC6CCN(c7ccc8c(C9CCC(=O)NC9=O)nn(C)c8c7)CC6)CC5)CC4)ncc3Cl)ccc2n(C)c1=O` (stereo not shown) [Compound 348, 3-(6-(4-((9-(5-chloro-4-((1-methyl-2-oxo-3-(2-oxopropoxy)-1,2-dihydroquinolin-6-yl)amino)pyrimidin-2-yl)-3,9-diazaspiro[5.5]undecan-3-yl)methyl)piperidin-1-yl)-1-methyl-1H-indazol-3-yl)piperidine-2,6-dione], “++++ (Ymin ≤ 25%)”.
